For eleven compounds, EC50 and Ki results are on record in US12297190B2, “Modulators of STING (stimulator of interferon genes)” (PFIZER INC., priority 2019, dated 2025).

For assay [1], the target named is T1, STING (Homo sapiens, UniProt Q86WV6, G230A/H232R/R293Q/R71H).
T1 construct: host or cells: THP-1 and THP-1 Lucia ISG cells
Nature of the assay: Phosphorylation of IRF3: THP-1 cell ELISA. In kind it is cell-based. Conditions: THP-1 cells, 3 hours incubation, phospho-IRF3 ELISA; read-out: THP-1 CELL P-IRF3 EC50. As for the experimental part: Phosphorylation of IRF3: THP-1 Cell ELISA
STING activation results in recruitment of TBK1 and phosphorylation of IRF3 transcription factor before induction of type I interferons. THP-1 cells (InvivoGen) were grown in RPMI media plus 2 mM L-glutamine, 10% fetal bovine serum, and 0.5% Pen-Strep. 10^4 cells were seeded in 96-well plates and incubated overnight 37° C., 5% CO2. Compounds serial diluted compounds in media (final 0.5% DMSO) were added to the cells and incubated for an additional 3 hours. After incubation, the plates were centrifuged at 2000 rpm for 5 min. The cells were then lysed in 100 μl RIPA buffer and vortexed for 30 minutes at room temperature. 25 μl of lysate was then transferred to clear polystyrene High Bind plates that had been previously coated with mouse anti-human IRF-3 capture antibody (BD Pharmigen), and allowed to incubate at 4° C. for 16 hours. The plates were then washed and incubated with rabbit anti-phospho-IRF3 detection antibody (Cell Signaling Technologies) for 1.5 hours at room temperature. Finally, an HRP-linked secondary antibody (Cell Signaling Technologies) was added for 30 min before the Glo Substrate Reagent (R&D Systems) was used generate the luminescent signal. The signal was measured using a Perkin-Elmer Envision microplate reader. Data were normalized to “% effect” with a positive control STING agonist that was known to maximize the phosphorylated IRF3 signal and the negative control was DMSO.
Background: An ELISA detects its analyte on a solid surface through an enzyme-linked reagent.

Assay [2] addresses T1, STING. Nature of the assay: Interferon-β induction: THP-1 Lucia ISG reporter cell line. It counts as cell-based. The settings on record: THP-1 Lucia ISG cells, 24 hours incubation, luciferase reporter; read-out: THP-1 Lucia ISG Cells IFN-β EC50. As for the experimental part:
Interferon-β Induction: THP-1 ISG Reporter Cell Line
THP-1 Lucia™ ISG cells (InvivoGen) express the secreted luciferase “Lucia” reporter gene under the control of an IRF-inducible composite promotor comprised of five interferon response elements. THP-1 Lucia™ ISG cells were grown in RPMI media plus 2 mM L-glutamine, 10% fetal bovine serum, and 0.5% Pen-Strep. Hygromycin B and Zeocin were present to maintain stable transfection. 10^4 cells were seeded in 96-well plates and incubated overnight 37° C., 5% CO2. 50 μL of serial diluted compounds in media (final 0.5% DMSO) was and incubated for an additional 24 hours. After incubation, the plates were centrifuged at 2000 rpm for 10 min. 50 μl of cell culture supernatant of each well was transferred to a white, opaque 96-well plate. One pouch of QUANTI-Luc™ (InvivoGen) powder was prepared in 25 mL of endotoxin-free water and 100 μL of prepared warm QUANTI-Luc solution were added to each well containing the supernatant. The luminescence signal was measured using a Perkin-Elmer Envision microplate reader. Data were normalized to “% effect” with a positive control STING agonist that was known to maximize the luciferase signal and the negative control DMSO.

The target in a further assay is R232-STING (Homo sapiens, UniProt Q86WV6, H232R). Put plainly: biochemical.
Sequence of R232-STING (Q86WV6 155-341 H232R): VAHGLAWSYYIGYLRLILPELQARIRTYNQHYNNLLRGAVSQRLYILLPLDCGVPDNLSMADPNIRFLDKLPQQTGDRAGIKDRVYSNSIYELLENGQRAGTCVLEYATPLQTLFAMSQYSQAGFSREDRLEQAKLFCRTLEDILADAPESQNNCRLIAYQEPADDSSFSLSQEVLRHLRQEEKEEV

Structures can show the parent of a compound that is named as a salt.

T1 sequence (Q86WV6 whole entry R71H/G230A/H232R/R293Q): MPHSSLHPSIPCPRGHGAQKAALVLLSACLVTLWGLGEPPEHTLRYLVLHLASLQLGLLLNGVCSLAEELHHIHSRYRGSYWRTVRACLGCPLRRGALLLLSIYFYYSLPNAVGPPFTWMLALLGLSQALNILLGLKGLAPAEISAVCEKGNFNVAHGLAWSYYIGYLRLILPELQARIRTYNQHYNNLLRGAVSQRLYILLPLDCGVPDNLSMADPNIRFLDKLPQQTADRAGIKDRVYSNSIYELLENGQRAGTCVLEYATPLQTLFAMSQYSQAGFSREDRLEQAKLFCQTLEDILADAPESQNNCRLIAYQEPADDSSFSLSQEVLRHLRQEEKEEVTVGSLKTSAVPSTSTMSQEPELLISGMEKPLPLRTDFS

In general, EC50 refers to the concentration giving half of the maximal effect. The Ki is a dissociation constant, usually derived from enzyme kinetics or from competition with a known ligand. The low end stands for a stronger hold on the target, the high end for a looser hold on the target. In the case of `CCn1nc(C)c(O)c1-c1nc(-c2nc(C(N)=O)cc3c2cnn3C)n(C)n1` [Example Q01, 4-[3-(1-ethyl-4-hydroxy-3-methyl-1H-pyrazol-5-yl)-1-methyl-1H-1,2,4-triazol-5-yl]-1-methyl-1H-pyrazolo[4,3-c]pyridine-6-carboxamide], the figures for the 50% effective concentration (EC50) on STING [1] and on STING [2] were 120 nM and 140 nM, respectively. Also, the inhibition constant Ki at R232-STING is 3.2 nM.
In the case of `CCn1nc(C)c(F)c1-c1nc(-c2nc(C(N)=O)cc3c2cnn3C)c(CN)s1` [Example S01, 4-[5-(aminomethyl)-2-(1-ethyl-4-fluoro-3-methyl-1H-pyrazol-5-yl)-1,3-thiazol-4-yl]-1-methyl-1H-pyrazolo[4,3-c]pyridine-6-carboxamide], the EC50 at STING [1] came to 1300 nM; on STING [2], 2300 nM. Moreover, affinity at R232-STING was put at a Ki of 11.5 nM.
For `CCn1nc(C)cc1-c1nc(-c2nc(C(N)=O)cc3c2cnn3C)c(CN)o1` [Example T01, 4-[5-(aminomethyl)-2-(1-ethyl-3-methyl-1H-pyrazol-5-yl)-1,3-oxazol-4-yl]-1-methyl-1H-pyrazolo[4,3-c]pyridine-6-carboxamide] the same measures were 980 nM, 1460 nM and 27.7 nM.
For `CCn1ncc(O)c1-c1nc(-c2nc(C(N)=O)cc3c2cnn3C)c(CN)o1` [Example U02] the same measures were 6500 nM, 6200 nM and 51.6 nM.
For `Cc1nn(CCCO)c(-c2nc(-c3nc(C(N)=O)cc4c3cnn4C)c(CN)o2)c1O` [Example U03] the same measures were 2820 nM, 2520 nM and 29.8 nM.
For `Cc1cc(-c2nc(-c3nc(C(N)=O)cc4c3cnn4C)c(CN)o2)n(CCCO)n1` [Example U04], the EC50 amounted to 1990 nM on STING [1] and 1850 nM on STING [2]. The compound also had a Ki on R232-STING of 34.4 nM.
For `Cc1nn(CCO)c(-c2nnc(-c3nc(C(N)=O)cc4c3cnn4C)[nH]2)c1O` [Example V01, 4-{5-[4-hydroxy-1-(2-hydroxyethyl)-3-methyl-1H-pyrazol-5-yl]-4H-1,2,4-triazol-3-yl}-1-methyl-1H-pyrazolo[4,3-c]pyridine-6-carboxamide] the same measures were 890 nM, 590 nM and 6.9 nM.
For `CCn1nc(C)c(O)c1-c1nc(-c2nc(C(N)=O)cc3c2cnn3C)c(CN)s1` [Example X01, (4-(6-carbamoyl-1-methyl-1H-pyrazolo[4,3-c]pyridin-4-yl)-2-(1-ethyl-4-hydroxy-3-methyl-1H-pyrazol-5-yl)thiazol-5-yl)methanaminium formate] the same measures were 340 nM, 380 nM and 0.6 nM.
For `CCn1nc(C)c(F)c1-c1nc(-c2nc(C(N)=O)cc3c2cnn3CC(CO)CO)n(C)n1` [Example Y01, 4-[3-(1-ethyl-4-fluoro-3-methyl-1H-pyrazol-5-yl)-1-methyl-1H-1,2,4-triazol-5-yl]-1-[3-hydroxy-2-(hydroxymethyl)propyl]-1H-pyrazolo[4,3-c]pyridine-6-carboxamide] the same measures were 7100 nM, 7340 nM and 27.2 nM.
Consider `CCn1nc(C)cc1-c1n[nH]c(-c2cc(C(N)=O)cc3c2cnn3CCCC(=O)O)n1` [YY02, 4-{6-carbamoyl-4-[3-(1-ethyl-3-methyl-1H-pyrazol-5-yl)-1H-1,2,4-triazol-5-yl]-1H-indazol-1-yl}butanoic acid], for which the concentration for a half-maximal effect (EC50) on STING [1] and on STING [2] was greater than 100000 nM throughout. Besides, on R232-STING, affinity was put at a Ki of 84.8 nM.
Turning to `CCn1nc(C)cc1-c1nnc(-c2cc(C(N)=O)cc3c2cnn3CCC(=O)O)[nH]1` [YY03, 3-{6-carbamoyl-4-[5-(1-ethyl-3-methyl-1H-pyrazol-5-yl)-4H-1,2,4-triazol-3-yl]-1H-indazol-1-yl}propanoic acid], the 50% effective concentration (EC50) at STING [1] and on STING [2] was greater than 100000 nM each time. The compound also came in with an inhibitory constant (Ki) at R232-STING of 109 nM.
